Results taken from US20240270762A1, “PENICILLIN-BINDING PROTEIN INHIBITORS” (priority 2021, published 2024).
≈ marks a conversion by molar mass, not a printed value.

Experiments:
[1] = target: T1, PBP3 from Pseudomonas aeruginosa (PAO1) (Pseudomonas aeruginosa, UniProt G3XD46); assay: Bocillin-FL fluorescence polarization competition binding, P. aeruginosa PBP3; details: Binding affinity to P. aeruginosa PBP3; fluorescence polarization competition binding assay using Bocillin-FL; read-out: P. aeruginosa PBP3 Potency
T1 construct: made in house
How it was run: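 Purified PBPs pre-incubated with inhibitor (E. coli PBP3 1.5 μM, 30 min; P. aeruginosa PBP3 0.75 μM, A. baumannii PBP1a 1 μM and PBP3 0.2 μM, 15 min), then Bocillin-FL 0.1 μM (0.05 μM for PBP1a) added; FP read up to 60 min. EC50 = concentration halving bound Bocillin-FL.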

E. coli ATCC 25922 = assay: microbe, parasite or virus in culture; assay type: cell-based; details: Escherichia coli, ATCC25922, read-out: MIC E. coli 25922
E. coli D22 = assay: microbe, parasite or virus in culture; assay type: cell-based; details: Escherichia coli, D22, read-out: MIC E. coli D22
E. coli AG100A = assay: Broth microdilution MIC in CAMHB; assay type: cell-based; details: Escherichia coli, read-out: MIC E. coli AG100A
K. pneumoniae 848844 = assay: microbe, parasite or virus in culture; assay type: cell-based; details: Klebsiella pneumoniae, 848844, read-out: MIC K. pneumoniae 848844
K. pneumoniae SI-117 = assay: microbe, parasite or virus in culture; assay type: cell-based; details: Klebsiella pneumoniae, SI117, read-out: MIC K. pneumoniae SI-117
P. aeruginosa ATCC 35151 = assay: microbe, parasite or virus in culture; assay type: cell-based; details: Pseudomonas aeruginosa, ATCC35151, read-out: MIC P. aeruginosa ATCC 35151
[2] = test system: P. aeruginosa (ΔmexAB-oprM); assay: Broth microdilution MIC in CAMHB; assay type: cell-based; details: Pseudomonas aeruginosa; read-out: MIC P. aeruginosa ΔmexAB-oprM
[3] = test system: N. gonorrhoeae ATCC 49226; assay: Liquid broth MIC in Fastidious broth; details: Neisseria gonorrhoeae, ATCC49226, read-out: Minimum Inhibitory Concentration (MIC), N. gonorrhoeae ATCC 49226
N. gonorrhoeae FA1090 = assay: Liquid broth MIC in Fastidious broth; details: Neisseria gonorrhoeae, FA1090, read-out: Minimum Inhibitory Concentration (MIC), N. gonorrhoeae FA 1090
N. gonorrhoeae WHO G = assay: Liquid broth MIC in Fastidious broth; details: Neisseria gonorrhoeae, read-out: Minimum Inhibitory Concentration (MIC), N. gonorrhoeae WHO G
N. gonorrhoeae WHO M = assay: Liquid broth MIC in Fastidious broth; details: Neisseria gonorrhoeae, read-out: Minimum Inhibitory Concentration (MIC), N. gonorrhoeae WHO M
N. gonorrhoeae WHO K = assay: Liquid broth MIC in Fastidious broth; details: Neisseria gonorrhoeae, read-out: Minimum Inhibitory Concentration (MIC), N. gonorrhoeae WHO K
N. gonorrhoeae WHO X = assay: Liquid broth MIC in Fastidious broth; details: Neisseria gonorrhoeae, read-out: Minimum Inhibitory Concentration (MIC), N. gonorrhoeae WHO X
N. gonorrhoeae WHO Q = assay: Liquid broth MIC in Fastidious broth; details: Neisseria gonorrhoeae, read-out: Minimum Inhibitory Concentration (MIC), N. gonorrhoeae WHO Q
Experimental: Liquid broth-based assays were used for antibacterial testing of PBP inhibitors in Neisseria gonorrhoeae. Briefly, cryo-preserved bacterial cultures of clinical strains were streaked for isolation on Chocolate Agar (72 g/L (2×) GC Agar Base (BD #228950) and 2% (2×) Hemoglobin was autoclaved at 121° C. for 20 minutes to sterilize. Once cooled to ˜50° C. the 2×GC Agar Base and 2× Hemoglobin solutions are combined and 1% IsoVitaleX Enrichment (BD #211876) was added to the solution). Strains were incubated at 36° C. and 5% CO2 to allow growth of colonies, 24 hours before inoculum preparation. 2-fold serial dilutions of test compounds were conducted in a 96 well plate with a final volume of 75 μL per well at 2-fold the final desired concentration in Fastidious broth (Remel #R07664). For preparation of assay inoculum, a direct suspension was prepared by aseptically swabbing 10-15 colonies from agar plates into culture tubes containing 2 mL of fresh sterile saline. After the dilution plates were set up, direct suspensions were then diluted in a cuvette containing sterile saline and the optical density was measured at 600 nm. Inocula were diluted such that 75 μL of this culture in Fastidious broth results in a starting bacterial concentration of 5×10^5 CFU/mL when added to the dilution plates. The plates were incubated for ˜24 hours at 36° C. and 5% CO2.

N. gonorrhoeae CDC-0197 = assay: Liquid broth MIC in Fastidious broth; details: Neisseria gonorrhoeae, CDC0197, read-out: Minimum Inhibitory Concentration (MIC), N. gonorrhoeae CDC-0197

T1 sequence (G3XD46 whole entry): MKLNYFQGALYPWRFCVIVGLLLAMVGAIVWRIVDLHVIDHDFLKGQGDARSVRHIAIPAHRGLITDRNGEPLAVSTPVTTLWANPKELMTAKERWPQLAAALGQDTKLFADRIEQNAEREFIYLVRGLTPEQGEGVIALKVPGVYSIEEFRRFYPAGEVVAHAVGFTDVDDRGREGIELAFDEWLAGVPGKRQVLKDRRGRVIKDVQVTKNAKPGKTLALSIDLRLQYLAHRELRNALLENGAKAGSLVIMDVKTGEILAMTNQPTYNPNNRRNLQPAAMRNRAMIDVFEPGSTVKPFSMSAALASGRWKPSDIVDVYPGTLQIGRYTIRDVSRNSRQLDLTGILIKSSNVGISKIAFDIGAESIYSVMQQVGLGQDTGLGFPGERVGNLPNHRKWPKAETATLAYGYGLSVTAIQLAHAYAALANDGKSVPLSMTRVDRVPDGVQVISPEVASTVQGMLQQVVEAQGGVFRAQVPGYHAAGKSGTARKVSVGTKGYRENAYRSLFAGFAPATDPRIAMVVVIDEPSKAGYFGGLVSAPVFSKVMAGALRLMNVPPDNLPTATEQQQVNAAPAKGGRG

Row | SMILES | IC50 [1] [µM] | MIC (E. coli ATCC 25922) [µg/mL] | MIC (E. coli D22) [µg/mL] | MIC (E. coli AG100A) [µg/mL] | MIC (K. pneumoniae 848844) [µg/mL] | MIC (K. pneumoniae SI-117) [µg/mL] | MIC (P. aeruginosa ATCC 35151) [µg/mL] | MIC [2] [µg/mL] | MIC [3] [µg/mL] | MIC (N. gonorrhoeae FA1090) [µg/mL] | MIC (N. gonorrhoeae WHO G) [µg/mL] | MIC (N. gonorrhoeae WHO M) [µg/mL] | MIC (N. gonorrhoeae WHO K) [µg/mL] | MIC (N. gonorrhoeae WHO X) [µg/mL] | MIC (N. gonorrhoeae WHO Q) [µg/mL] | MIC (N. gonorrhoeae CDC-0197) [µg/mL]
1 | O=C(NC(C(=O)N[C@H]1Cc2cccc(C(=O)O)c2OB1O)c1ccc(P(=O)(O)O)cc1)c1ccccn1 (stereo partly drawn) [Example 32, (3R)-2-hydroxy-3-(2-(4-phosphonophenyl)-2-(picolinamido)acetamido)-3,4-dihydro-2H-benzo[e][1,2]oxaborinine-8-carboxylic acid] | < 10 | > 128 | 8 to 16 (≈ 15.2 to 30.5 µM) | 32 to 64 (≈ 60.9 to 122 µM) | > 128 | > 128 | 2 to 4 (≈ 3.81 to 7.62 µM) | 32 to 64 (≈ 60.9 to 122 µM) | 1 to 2 (≈ 1.9 to 3.81 µM) | < 1 | < 1 | < 1 | 4 to 8 (≈ 7.62 to 15.2 µM) | 16 to 32 (≈ 30.5 to 60.9 µM) | 1 to 2 (≈ 1.9 to 3.81 µM) | 1 to 2 (≈ 1.9 to 3.81 µM)
2 | CC(=O)N1CCC[C@@H]1C(=O)N[C@H](C(=O)N[C@H]1Cc2cccc(C(=O)O)c2OB1O)c1ccc(P(=O)(O)O)cc1 [Example 33, (3R)-3-(2-((R)-1-acetylpyrrolidine-2-carboxamido)-2-(4-phosphonophenyl)acetamido)-2-hydroxy-3,4-dihydro-2H-benzo[e][1,2]oxaborinine-8-carboxylic acid] | 10 to 50 | > 128 | 32 to 64 (≈ 57.2 to 114 µM) | > 128 | > 128 | > 128 | 8 to 16 (≈ 14.3 to 28.6 µM) | > 128 | 16 to 32 (≈ 28.6 to 57.2 µM) | 4 to 8 (≈ 7.15 to 14.3 µM) | 16 to 32 (≈ 28.6 to 57.2 µM) | 4 to 8 (≈ 7.15 to 14.3 µM) | 16 to 32 (≈ 28.6 to 57.2 µM) | 16 to 32 (≈ 28.6 to 57.2 µM) | 16 to 32 (≈ 28.6 to 57.2 µM) | 16 to 32 (≈ 28.6 to 57.2 µM)
3 | CS(=O)(=O)N1CCC[C@@H]1C(=O)N[C@H](C(=O)N[C@H]1Cc2cccc(C(=O)O)c2OB1O)c1ccc(P(=O)(O)O)cc1 [Example 34, (R)-2-hydroxy-3-((S)-2-((R)-1-(methylsulfonyl)pyrrolidine-2-carboxamido)-2-(4-phosphonophenyl)acetamido)-3,4-dihydro-2H-benzo[e][1,2]oxaborinine-8-carboxylic acid] | 50 to 250 | > 128 | 32 to 64 (≈ 53.8 to 108 µM) | > 128 | > 128 | > 128 | 8 to 16 (≈ 13.4 to 26.9 µM) | > 128 | 16 to 32 (≈ 26.9 to 53.8 µM) | 4 to 8 (≈ 6.72 to 13.4 µM) | 4 to 8 (≈ 6.72 to 13.4 µM) | 4 to 8 (≈ 6.72 to 13.4 µM) | 16 to 32 (≈ 26.9 to 53.8 µM) | 16 to 32 (≈ 26.9 to 53.8 µM) | 16 to 32 (≈ 26.9 to 53.8 µM) | 16 to 32 (≈ 26.9 to 53.8 µM)
4 | CS(=O)(=O)N1CCC[C@@H]1C(=O)N[C@@H](C(=O)N[C@H]1Cc2cccc(C(=O)O)c2OB1O)c1ccc(P(=O)(O)O)cc1 [Example 35, (R)-2-hydroxy-3-((R)-2-((R)-1-(methylsulfonyl)pyrrolidine-2-carboxamido)-2-(4-phosphonophenyl)acetamido)-3,4-dihydro-2H-benzo[e][1,2]oxaborinine-8-carboxylic acid] | < 10 | > 128 | 8 to 16 (≈ 13.4 to 26.9 µM) | > 128 | > 128 | > 128 | 2 to 4 (≈ 3.36 to 6.72 µM) | > 128 | 1 to 2 (≈ 1.68 to 3.36 µM) | < 1 | 1 to 2 (≈ 1.68 to 3.36 µM) | < 1 | 4 to 8 (≈ 6.72 to 13.4 µM) | 16 to 32 (≈ 26.9 to 53.8 µM) | 4 to 8 (≈ 6.72 to 13.4 µM) | 4 to 8 (≈ 6.72 to 13.4 µM)
5 | O=C(O)c1cccc2c1OB(O)[C@@H](NC(=O)[C@@H](NC(=O)N1CCCCC1=O)c1ccc(P(=O)(O)O)cc1)C2 [Example 36, (R)-2-hydroxy-3-((S)-2-(2-oxopiperidine-1-carboxamido)-2-(4-phosphonophenyl)acetamido)-3,4-dihydro-2H-benzo[39e][1,2]oxaborinine-8-carboxylic acid] | 50 to 250 | > 128 | 32 to 64 (≈ 58.7 to 117 µM) | > 128 | > 128 | > 128 | 8 to 16 (≈ 14.7 to 29.3 µM) | > 128 | 16 to 32 (≈ 29.3 to 58.7 µM) | 1 to 2 (≈ 1.83 to 3.67 µM) | 4 to 8 (≈ 7.34 to 14.7 µM) | 1 to 2 (≈ 1.83 to 3.67 µM) | 16 to 32 (≈ 29.3 to 58.7 µM) | 16 to 32 (≈ 29.3 to 58.7 µM) | 16 to 32 (≈ 29.3 to 58.7 µM) | 16 to 32 (≈ 29.3 to 58.7 µM)
6 | O=C(O)c1cccc2c1OB(O)[C@@H](NC(=O)[C@H](NC(=O)N1CCCCC1=O)c1ccc(P(=O)(O)O)cc1)C2 [Example 37, (R)-2-hydroxy-3-((R)-2-(2-oxopiperidine-1-carboxamido)-2-(4-phosphonophenyl)acetamido)-3,4-dihydro-2H-benzo[e][1,2]oxaborinine-8-carboxylic acid] | < 10 | > 128 | 8 to 16 (≈ 14.7 to 29.3 µM) | 32 to 64 (≈ 58.7 to 117 µM) | > 128 | > 128 | < 1 | 8 to 16 (≈ 14.7 to 29.3 µM) | < 1 | < 1 | < 1 | < 1 | 4 to 8 (≈ 7.34 to 14.7 µM) | 16 to 32 (≈ 29.3 to 58.7 µM) | 1 to 2 (≈ 1.83 to 3.67 µM) | 1 to 2 (≈ 1.83 to 3.67 µM)
7 | CN1CCCN(C(=O)NC(C(=O)N[C@H]2Cc3cccc(C(=O)O)c3OB2O)c2ccc(P(=O)(O)O)cc2)C1=O (stereo partly drawn) [Example 38, (3R)-2-hydroxy-3-(2-(3-methyl-2-oxohexahydropyrimidine-1-carboxamido)-2-(4-phosphonophenyl)acetamido)-3,4-dihydro-2H-benzo[e][1,2]oxaborinine-8-carboxylic acid] | < 10 | > 128 | 8 to 16 (≈ 14.3 to 28.6 µM) | 32 to 64 (≈ 57.1 to 114 µM) | > 128 | > 128 | 2 to 4 (≈ 3.57 to 7.14 µM) | 32 to 64 (≈ 57.1 to 114 µM) | 1 to 2 (≈ 1.78 to 3.57 µM) | < 1 | < 1 | < 1 | 4 to 8 (≈ 7.14 to 14.3 µM) | 16 to 32 (≈ 28.6 to 57.1 µM) | 4 to 8 (≈ 7.14 to 14.3 µM) | 1 to 2 (≈ 1.78 to 3.57 µM)
8 | O=C(O)c1cccc2c1OB(O)[C@@H](NC(=O)[C@@H](NC(=O)N1CCNC1=O)c1ccc(P(=O)(O)O)cc1)C2 [Example 39, (R)-2-hydroxy-3-((S)-2-(2-oxoimidazolidine-1-carboxamido)-2-(4-phosphonophenyl)acetamido)-3,4-dihydro-2H-benzo[e][1,2]oxaborinine-8-carboxylic acid] | 10 to 50 | > 128 | 32 to 64 (≈ 60.1 to 120 µM) | > 128 | > 128 | > 128 | 2 to 4 (≈ 3.76 to 7.52 µM) | > 128 | 1 to 2 (≈ 1.88 to 3.76 µM) | < 1 | < 1 | < 1 | 16 to 32 (≈ 30.1 to 60.1 µM) | 16 to 32 (≈ 30.1 to 60.1 µM) | 4 to 8 (≈ 7.52 to 15 µM) | 1 to 2 (≈ 1.88 to 3.76 µM)
9 | O=C(O)c1cccc2c1OB(O)[C@@H](NC(=O)[C@H](NC(=O)N1CCNC1=O)c1ccc(P(=O)(O)O)cc1)C2 [Example 40, (R)-2-hydroxy-3-((R)-2-(2-oxoimidazolidine-1-carboxamido)-2-(4-phosphonophenyl)acetamido)-3,4-dihydro-2H-benzo[e][1,2]oxaborinine-8-carboxylic acid] | < 10 | 32 to 64 (≈ 60.1 to 120 µM) | 2 to 4 (≈ 3.76 to 7.52 µM) | 8 to 16 (≈ 15 to 30.1 µM) | > 128 | > 128 | < 1 | 8 to 16 (≈ 15 to 30.1 µM) | < 1 | < 1 | < 1 | < 1 | 1 to 2 (≈ 1.88 to 3.76 µM) | 1 to 2 (≈ 1.88 to 3.76 µM) | < 1 | < 1
10 | CN1CCN(C(=O)NC(C(=O)N[C@H]2Cc3cccc(C(=O)O)c3OB2O)c2ccc(P(=O)(O)O)cc2)C1=O (stereo partly drawn) [Example 41, (3R)-2-hydroxy-3-(2-(3-methyl-2-oxoimidazolidine-1-carboxamido)-2-(4-phosphonophenyl)acetamido)-3,4-dihydro-2H-benzo[e][1,2]oxaborinine-8-carboxylic acid] | < 10 | 32 to 64 (≈ 58.6 to 117 µM) | 2 to 4 (≈ 3.66 to 7.32 µM) | 8 to 16 (≈ 14.6 to 29.3 µM) | > 128 | > 128 | < 1 | 8 to 16 (≈ 14.6 to 29.3 µM) | < 1 | < 1 | < 1 | < 1 | < 1 | 1 to 2 (≈ 1.83 to 3.66 µM) | < 1 | < 1
